This note sets out measurements from US9981909B2 (Janssen Pharmaceutica NV, priority 2008, dated 2018).

Structures are written as SMILES. Counter-ions that a name gives are not always drawn.

The target of one assay is rat 5-HT7 receptor (Rattus norvegicus (Rat), UniProt P32305). The assay can be described thus: r5-HT7 binding assay, competitive radioligand binding with [3H]5-CT. The procedure, abridged:
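For h5-HT6, stably transfected HEK-293 membranes were exposed to 1.7 nM [3H]LSD plus increasing compound for 60 min at room temperature, with 10 μM clozapine for nonspecific binding. The r5-HT7 assay used [3H]5-CT competition on recombinant HEK-293 membranes, Ki derived from radioactivity counts.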

For another assay, the target named is r5-HT7 receptor (Rattus norvegicus (Rat), UniProt P32305). The assay is described as follows: HitHunter cAMP assay, antagonist testing against 100 nM 5-CT. Type of assay: cell-based. Conditions: antagonist testing, 100 nM 5-CT challenge, HEK-293 r5-HT7; read-out: R5HT7 cAMP pKb (converted). On the procedure:
(§1) Receptor binding was performed using membrane fractions prepared from the HEK-293 cell line recombinantly expressing rat 5-HT7 receptors (NCBI accession NM_022938). Compound affinity for the rat 5-HT7 receptor subtype was evaluated by competitive radioligand binding assays using 5-carboxamido[^3H]tryptamine ([^3H]5-CT) (Amersham Biosciences, cat. 90000403) detection. HitHunter™ cAMP assays are in-vitro based competitive immunoassays. The assay was performed on the HEK-293 cell line stably transfected with r5-HT7 receptor. Cells were pre-incubated with test compounds for 10 minutes. For antagonist testing, the cells were then challenged with 100 nM 5-CT for 20 minutes. Cells were then lysed and cAMP measured according to manufacturers protocol (Amersham, cat. NET791250UC) or [^3H]mesulergine (Amersham, cat. TRK1041). The assay was performed on membranes prepared from HEK-293 cells stably transfected with h5-HT6. Following centrifugation, membranes were resuspended and incubated for 60 min at room temperature with 1.7 nM [^3H]LSD in the presence of increasing concentration of test compounds. Nonspecific binding was defined in the presence of 10 μM clozapine (Tocris, cat. TRK1068). Homogenized HEK-293 membranes expressing the human SERT were incubated in 50 mM Tris-HCl (pH 7.5), 120 mM NaCl, 5 mM KCl with [^3H]-citalopram (3 nM) with or without test compounds. Nonspecific binding was determined in the presence of 10 μM fluoxetine. Radioactivity readouts and Ki values were performed as previously described for r5-HT7. […] Compounds were assayed in their free form or as salts, as indicated in the Examples section above.

For another assay, the target named is human SERT (Homo sapiens (Human), UniProt P31645). The assay is described as follows: human SERT binding assay with [3H]-citalopram on HEK-293 membranes. Conditions: read-out: hSERT binding Ki. On the procedure: as §1
The mark [1] stands for this setting: rat 5-HT7 receptor, HEK-293 membranes.

Sequence of human SERT (P31645 whole entry): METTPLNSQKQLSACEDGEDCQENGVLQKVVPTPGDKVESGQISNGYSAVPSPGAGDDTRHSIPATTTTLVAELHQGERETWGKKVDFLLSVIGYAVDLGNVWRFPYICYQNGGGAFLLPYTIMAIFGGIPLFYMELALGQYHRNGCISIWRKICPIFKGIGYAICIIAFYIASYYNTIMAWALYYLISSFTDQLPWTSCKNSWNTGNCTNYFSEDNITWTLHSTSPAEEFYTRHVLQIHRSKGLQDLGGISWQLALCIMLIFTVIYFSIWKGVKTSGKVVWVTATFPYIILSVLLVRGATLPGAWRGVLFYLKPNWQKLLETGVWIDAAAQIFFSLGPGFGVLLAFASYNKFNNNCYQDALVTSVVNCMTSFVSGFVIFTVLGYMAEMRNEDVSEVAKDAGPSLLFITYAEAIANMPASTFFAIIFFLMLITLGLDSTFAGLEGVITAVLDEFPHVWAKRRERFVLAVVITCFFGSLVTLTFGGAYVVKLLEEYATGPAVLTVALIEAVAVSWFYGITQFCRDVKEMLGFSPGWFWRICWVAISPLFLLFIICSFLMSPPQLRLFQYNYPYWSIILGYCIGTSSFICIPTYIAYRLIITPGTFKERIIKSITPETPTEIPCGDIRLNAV
Sequence of r5-HT7 receptor (P32305 1-435): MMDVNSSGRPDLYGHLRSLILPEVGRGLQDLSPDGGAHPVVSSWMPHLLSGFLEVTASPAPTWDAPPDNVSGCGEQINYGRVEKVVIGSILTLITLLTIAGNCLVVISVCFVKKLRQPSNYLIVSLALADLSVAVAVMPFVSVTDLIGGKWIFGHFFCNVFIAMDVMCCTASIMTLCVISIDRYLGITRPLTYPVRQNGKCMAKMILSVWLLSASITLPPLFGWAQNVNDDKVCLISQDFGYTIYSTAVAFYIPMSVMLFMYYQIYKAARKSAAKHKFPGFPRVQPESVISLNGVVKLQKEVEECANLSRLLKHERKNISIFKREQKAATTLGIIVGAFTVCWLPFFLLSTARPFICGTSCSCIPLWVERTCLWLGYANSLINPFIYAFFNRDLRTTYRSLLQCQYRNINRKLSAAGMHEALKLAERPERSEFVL
Sequence of rat 5-HT7 receptor (P32305 1-435): as above

The term Ki denotes a measure of affinity in units of concentration, obtained from inhibition or displacement. As to `Clc1cccc(Oc2ccc(Br)cc2OC2CNC2)c1` [Example 252, 3-[5-Bromo-2-(3-chloro-phenoxy)-phenoxy]-azetidine], the Ki at rat 5-HT7 receptor (rat 5-HT7, HEK-293 membranes) is 7 nM; at human SERT it was 60 nM. The Kb at r5-HT7 receptor was 63.1 nM.
With `Clc1ccc(OC2Cc3ccccc3C2)c(OC2CNC2)c1` [Example 173, 3-[5-Chloro-2-(indan-2-yloxy)-phenoxy]-azetidine], the Ki on rat 5-HT7 receptor (setting [1]) amounted to 7 nM; at human SERT it was 56 nM. Besides, the Kb at r5-HT7 receptor was 7.94 nM.
For `Brc1ccc(OCc2ccccc2)c(OC2CNC2)c1` [Example 1, 3-(2-Benzyloxy-5-bromo-phenoxy)-azetidine], the Ki on rat 5-HT7 receptor (setting [1]) was 9 nM; on human SERT, 48 nM. Also, the Kb on r5-HT7 receptor is 12.6 nM.
`FC(F)(F)c1cccc(COc2ccc(Cl)cc2OC2CNC2)c1` [Example 39, 3-[5-Chloro-2-(3-trifluoromethyl-benzyloxy)-phenoxy]-azetidine]: the Ki was found to be 7 nM on rat 5-HT7 receptor (setting [1]) and 4 nM on human SERT. Also, the Kb on r5-HT7 receptor was 3.16 nM.
On to `CC(C)N1CC(Oc2cc(Br)ccc2OCc2cccc(Cl)c2)C1` [Example 5, 3-[5-Bromo-2-(3-chloro-benzyloxy)-phenoxy]-1-isopropyl-azetidine], for which the Ki on rat 5-HT7 receptor (setting [1]) was 8 nM; at human SERT it was 194 nM. In addition, the Kb on r5-HT7 receptor was 5.01 nM.
The compound `Cc1ccc2c(c1)C(Oc1ccc(Br)cc1OC1CNC1)CC2` (racemic) [Example 156, (±)-3-[5-Bromo-2-(6-methyl-indan-1-yloxy)-phenoxy]-azetidine] gave a Ki at rat 5-HT7 receptor (setting [1]) of 252 nM. Further, the Kb on r5-HT7 receptor is over 10000 nM.
For `Brc1ccc(OC2CCc3ccccc32)c(OC2CNC2)c1` (racemic) [Example 151, (±)-3-[5-Bromo-2-(indan-1-yloxy)-phenoxy]-azetidine] the same measures were 40 nM and 31.6 nM.
Regarding `Clc1ccc(Oc2ccc(Br)cc2OC2CNC2)cc1` [Example 251, 3-[5-Bromo-2-(4-chloro-phenoxy)-phenoxy]-azetidine], the Ki on rat 5-HT7 receptor (rat 5-HT7, HEK-293 membranes) is 11 nM. Besides, the Kb on r5-HT7 receptor is 158 nM.
Regarding `Clc1cccc(Oc2ccc(Cl)cc2OC2CNC2)c1` [Example 257, 3-[5-Chloro-2-(3-chloro-phenoxy)-phenoxy]-azetidine maleate], the Ki on rat 5-HT7 receptor (rat 5-HT7, HEK-293 membranes) came to 21 nM. Moreover, at r5-HT7 receptor, the Kb was 501 nM.
As for `Fc1ccccc1COc1ccc(Br)cc1OC1CCNCC1` [Example 67, 4-[5-Bromo-2-(2-fluoro-benzyloxy)-phenoxy]-piperidine], at rat 5-HT7 receptor (setting [1]), the Ki stood at 13 nM. Also, the Kb on r5-HT7 receptor was 398 nM.
`CCCN1CC(Oc2cc(Br)ccc2OCc2cccc(Cl)c2)C1` [Example 4, 3-[5-Bromo-2-(3-chloro-benzyloxy)-phenoxy]-1-propyl-azetidine] displayed a Ki at rat 5-HT7 receptor (setting [1]) of 8 nM. For the same compound, on r5-HT7 receptor, the Kb was 0.631 nM.
On to `CCN1CC(Oc2cc(F)ccc2OCc2cccc(Cl)c2)C1` [Example 207, 3-[2-(3-Chloro-benzyloxy)-5-fluoro-phenoxy]-1-ethyl-azetidine], for which the Ki at rat 5-HT7 receptor (setting [1]) came to 20 nM. The Kb on r5-HT7 receptor is 15.8 nM.
In the case of `Fc1cccc(COc2ccc(Br)cc2OC2CCNCC2)c1` [Example 68, 4-[5-Bromo-2-(3-fluoro-benzyloxy)-phenoxy]-piperidine], affinity on rat 5-HT7 receptor (setting [1]) was put at a Ki of 17 nM. The Kb on r5-HT7 receptor is 631 nM.
On rat 5-HT7 receptor (rat 5-HT7, HEK-293 membranes), `Clc1ccc(Oc2ccc(Cl)cc2OC2CNC2)cc1` [Example 258, 3-[5-Chloro-2-(4-chloro-phenoxy)-phenoxy]-azetidine trifluoroacetate] gave a Ki of 23 nM. For the same compound, the Kb at r5-HT7 receptor is 501 nM.
The compound `Clc1ccc2c(c1)C(Oc1ccc(Br)cc1OC1CNC1)CC2` (racemic) [Example 153, (±)-3-[5-Bromo-2-(6-chloro-indan-1-yloxy)-phenoxy]-azetidine] registered a Ki at rat 5-HT7 receptor (setting [1]) of 84 nM. For the same compound, the Kb on r5-HT7 receptor was 63.1 nM.
Regarding `O=C(c1cccc(Cl)c1)c1ccc(Br)cc1OC1CNC1` [Example 282, [2-(Azetidin-3-yloxy)-4-bromo-phenyl]-(3-chloro-phenyl)-methanone], the Ki at rat 5-HT7 receptor (rat 5-HT7, HEK-293 membranes) was found to be 39 nM. Also, the Kb at r5-HT7 receptor was 200 nM.
